Patent publication US20230330089A1, “COVID PREVENTION AND TREATMENT USING AN INTEGRIN INHIBITOR” (priority 2022, published 2023)

Key:
[1] = Phase I, solid tumors; cited from earlier work
TGF-β signaling = conditions: breast cancer cells; cited from earlier work
[2] = test system: VsVg positive control lentivirus; assay type: cell-based; conditions: HSAE cells pre-treated with 20 nM to 1 μM for 2 hours; 24 hour infection
SARS-CoV-2 pseudovirus = conditions: cited from earlier work
ACE2 = conditions: cited from earlier work

SMILES	toxicity profile in patients [1]	effect on TGF-β signaling (TGF-β signaling)	effect on VsVg positive control infection [2]	pseudovirus infection of multiple human cell types (SARS-CoV-2 pseudovirus)	cellular expression of ACE2 (ACE2)
COc1ccc(S(=O)(=O)N[C@@H](CNc2nc(C)nc(N3CCC(c4ccc5c(n4)NCCC5)CC3)c2C)C(=O)O)cc1 [GLPG-0187]	favorable toxicity profile	decreased TGF-β signaling	no effect of the inhibitor was observed		
CNS(=O)(=O)Nc1nccc(Cc2c(C)c3ccc(Oc4ncccn4)cc3oc2=O)c1F [VS-6766]				inhibit pseudovirus infection	reduce cellular expression of ACE2
